Source: ChEMBL document CHEMBL5137112, “Semisynthetic Transformations on (+)-Boldine Reveal a 5-HT2A/2CR Antagonist” (J Nat Prod, 2022)

Experiments:
[1] = biological target: T1, 5-hydroxytryptamine receptor 2B (Homo sapiens, UniProt P41595); test: Displacement of [3H]LSD from 5-HT2B receptor (unknown origin) assessed as inhibition constant incubated for 90 mins by MicroBeta scintillation counting method
[2] = biological target: T2, 5-hydroxytryptamine receptor 2C (Homo sapiens, UniProt P28335); test: Displacement of [3H]Mesulergine from 5-HT2C receptor (unknown origin) assessed as inhibition constant incubated for 90 mins by MicroBeta scintillation counting method
T2 sequence (P28335 whole entry): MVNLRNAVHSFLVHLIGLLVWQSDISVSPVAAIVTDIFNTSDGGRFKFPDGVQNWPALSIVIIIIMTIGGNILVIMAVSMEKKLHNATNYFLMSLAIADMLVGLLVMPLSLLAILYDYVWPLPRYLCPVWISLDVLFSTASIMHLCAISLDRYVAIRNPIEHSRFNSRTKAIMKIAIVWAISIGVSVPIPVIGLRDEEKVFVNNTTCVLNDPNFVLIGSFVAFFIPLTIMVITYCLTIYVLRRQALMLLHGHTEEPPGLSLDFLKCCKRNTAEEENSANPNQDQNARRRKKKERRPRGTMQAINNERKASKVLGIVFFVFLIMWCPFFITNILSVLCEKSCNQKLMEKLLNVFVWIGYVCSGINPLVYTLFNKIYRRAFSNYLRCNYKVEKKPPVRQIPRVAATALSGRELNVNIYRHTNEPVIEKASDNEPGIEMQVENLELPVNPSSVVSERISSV

[3] = biological target: Serotonin 2 receptors; 5-HT2a & 5-HT2c (Homo sapiens) (UniProt P28223+P28335); test: Selectivity ratio of Ki for 5-HT2A receptor (unknown origin) to Ki for 5-HT2C receptor (unknown origin); format: protein assay
Sequence of Serotonin 2 receptors; 5-HT2a & 5-HT2c (Homo sapiens) (P28223 whole entry, looked up, one chain of several): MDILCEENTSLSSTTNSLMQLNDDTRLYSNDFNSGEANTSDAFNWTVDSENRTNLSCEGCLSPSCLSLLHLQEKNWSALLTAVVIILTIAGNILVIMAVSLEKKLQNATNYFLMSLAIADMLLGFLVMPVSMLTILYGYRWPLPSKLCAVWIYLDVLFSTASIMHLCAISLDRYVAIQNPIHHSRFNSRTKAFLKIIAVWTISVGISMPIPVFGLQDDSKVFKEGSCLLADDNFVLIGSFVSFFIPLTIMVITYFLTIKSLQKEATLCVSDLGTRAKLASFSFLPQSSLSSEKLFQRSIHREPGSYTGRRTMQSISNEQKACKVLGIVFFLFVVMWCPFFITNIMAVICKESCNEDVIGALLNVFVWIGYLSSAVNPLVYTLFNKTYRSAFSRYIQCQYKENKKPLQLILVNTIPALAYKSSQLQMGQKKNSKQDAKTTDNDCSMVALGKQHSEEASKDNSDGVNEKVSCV

[4] = species on record: Homo sapiens; test: Selectivity ratio of Ki for 5-HT2B receptor (unknown origin) to Ki for 5-HT2C receptor (unknown origin)
[5] = species on record: Homo sapiens; test: Selectivity ratio of Ki for 5-HT2A receptor (unknown origin) to Ki for 5-HT2B receptor (unknown origin)
[6] = biological target: T3, 5-hydroxytryptamine receptor 2A (Homo sapiens, UniProt P28223); test: Displacement of [3H]Ketanserin from 5-HT2A receptor (unknown origin) assessed as inhibition constant incubated for 90 mins by MicroBeta scintillation counting method
T3 sequence (P28223 whole entry): as the sequence (P28223 whole entry, looked up, one chain of several) above

[7] = biological target: T3, 5-hydroxytryptamine receptor 2A; test: Antagonist activity at 5-HT2A receptor (unknown origin) incubated for 60 mins followed by 10 mins incubation in dark at room temperature by FLIPR method; format: functional
[8] = biological target: T1, 5-hydroxytryptamine receptor 2B; test: Antagonist activity at 5-HT2B receptor (unknown origin) incubated for 60 mins followed by 10 mins incubation in dark at room temperature by FLIPR method; format: functional
[9] = biological target: T2, 5-hydroxytryptamine receptor 2C; test: Antagonist activity at 5-HT2C receptor (unknown origin) incubated for 60 mins followed by 10 mins incubation in dark at room temperature by FLIPR method; format: functional

T1 sequence (P41595 whole entry): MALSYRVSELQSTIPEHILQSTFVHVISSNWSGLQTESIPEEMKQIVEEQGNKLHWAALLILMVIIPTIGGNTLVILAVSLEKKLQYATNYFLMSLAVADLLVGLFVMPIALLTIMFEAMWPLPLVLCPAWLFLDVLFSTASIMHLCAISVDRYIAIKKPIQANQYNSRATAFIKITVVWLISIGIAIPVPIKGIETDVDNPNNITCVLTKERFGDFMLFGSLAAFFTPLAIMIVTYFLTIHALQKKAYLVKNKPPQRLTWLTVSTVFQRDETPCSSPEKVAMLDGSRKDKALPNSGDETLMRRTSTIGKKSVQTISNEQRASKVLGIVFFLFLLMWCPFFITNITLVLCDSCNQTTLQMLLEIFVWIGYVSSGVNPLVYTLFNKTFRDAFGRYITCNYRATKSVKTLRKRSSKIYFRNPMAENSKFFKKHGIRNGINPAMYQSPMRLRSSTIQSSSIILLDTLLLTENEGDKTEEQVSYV

| Structure (SMILES) | Ki [1] | Ki [2] | Ratio Ki [3] | Ratio Ki [4] | Ratio Ki [5] | Ki [6] | IC50 [7] | IC50 [8] | IC50 [9] |
| --- | --- | --- | --- | --- | --- | --- | --- | --- | --- |
| COc1cc2c(cc1OCc1ccccc1)C[C@H]1c3c(cc(OC)c(OC)c3-2)CCN1C | 192 nM | 179 nM | 1.2 | 1.1 | 1.1 | – | – | – | – |
| C=CCOc1cc2c(cc1OC)-c1c(OC)c(OC)cc3c1[C@H](C2)N(C)CC3 | 55 nM | 543 nM | 0.7 | 0.1 | 7 | – | – | – | – |
| CCCCCCOc1cc2c(cc1OC)-c1c(OC)c(OC)cc3c1[C@H](C2)N(C)CC3 | 53 nM | 614 nM | 0.9 | 0.1 | 10.8 | – | – | – | – |
| C=CCOc1cc2c3c(c1OC)-c1cc(OC)c(OC)cc1C[C@@H]3N(C)CC2 | 16 nM | 50 nM | 2 | 0.3 | 6.3 | 101 nM | – | – | – |
| COc1cc2c(cc1OC)-c1c(OC)c(OC(C)C)cc3c1[C@H](C2)N(C)CC3 | 156 nM | 190 nM | 3.1 | 0.8 | 3.8 | 587 nM | – | – | – |
| CCCCCOc1cc2c3c(c1OC)-c1cc(OC)c(OC)cc1C[C@@H]3N(C)CC2 | 47 nM | 40 nM | 3.5 | 1 | 2.9 | 138 nM | – | – | – |
| CCOc1cc2c3c(c1OC)-c1cc(OC)c(OC)cc1C[C@@H]3N(C)CC2 | 153 nM | 340 nM | 1.5 | 0.5 | 3.3 | 512 nM | – | – | – |
| CCCCOc1cc2c(cc1OC)-c1c(OC)c(OC)cc3c1[C@H](C2)N(C)CC3 | 56 nM | 450 nM | 0.6 | 0.1 | 4.8 | – | – | – | – |
| Cc1nc2sccn2c(=O)c1CCN1CCC(=C(c2ccc(F)cc2)c2ccc(F)cc2)CC1 [RITANSERIN] | – | 0.8 nM | – | – | – | – | – | – | – |
| CCCCC(C)Oc1cc2c3c(c1OC)-c1cc(OC)c(OC)cc1C[C@@H]3N(C)CC2 (some centres undefined) | 82 nM | 72 nM | 2.2 | 1 | 1.9 | 155 nM | – | – | – |
| CCCCCOc1cc2c(cc1OC)-c1c(OC)c(OC)cc3c1[C@H](C2)N(C)CC3 | 57 nM | 504 nM | 0.5 | 0.1 | 4.2 | – | – | – | – |
| COc1cc2c(cc1OCc1ccc(Br)cc1)C[C@H]1c3c(cc(OC)c(OC)c3-2)CCN1C | 42 nM | 281 nM | 1.5 | 0.1 | 10 | – | – | – | – |
| COc1cc2c(cc1OCCF)C[C@H]1c3c(cc(OC)c(OC)c3-2)CCN1C | 48 nM | 542 nM | 2.1 | 0.1 | 24.1 | – | – | – | – |
| CCOc1cc2c(cc1OC)-c1c(OC)c(OC)cc3c1[C@H](C2)N(C)CC3 | 80 nM | 425 nM | 1.9 | 0.2 | 10.2 | – | – | – | – |
| COc1cc2c(cc1OC)-c1c(OC)c(OC3CCCCC3)cc3c1[C@H](C2)N(C)CC3 | 92 nM | 113 nM | 4.7 | 0.8 | 5.8 | 534 nM | – | – | – |
| CCC(C)Oc1cc2c3c(c1OC)-c1cc(OC)c(OC)cc1C[C@@H]3N(C)CC2 (some centres undefined) | 96 nM | 94 nM | 3.1 | 1 | 3.1 | 293 nM | – | – | – |

| Structure (SMILES) | Ki [1] | Ki [2] | Ratio Ki [3] | Ratio Ki [4] | Ratio Ki [5] | Ki [6] | IC50 [7] | IC50 [8] | IC50 [9] |
| --- | --- | --- | --- | --- | --- | --- | --- | --- | --- |
| CCCC(C)Oc1cc2c3c(c1OC)-c1cc(OC)c(OC)cc1C[C@@H]3N(C)CC2 (some centres undefined) | 25 nM | 37 nM | 6.6 | 0.7 | 9.8 | 244 nM | – | – | – |
| COc1cc2c(cc1OC)-c1c(OC)c(OCCF)cc3c1[C@H](C2)N(C)CC3 | 629 nM | 1130 nM | – | 0.6 | – | – | – | – | – |
| COc1cc2c(cc1OC)-c1c(OC)c(OC)cc3c1[C@H](C2)N(C)CC3 [GLAUCINE] | 119 nM | 328 nM | 2.9 | 0.4 | 8.1 | – | – | – | – |
| COc1cc2c(cc1OC(C)C)C[C@H]1c3c(cc(OC)c(OC)c3-2)CCN1C | 45 nM | 559 nM | 1.3 | 0.1 | 16.7 | – | – | – | – |
| COc1cc2c(cc1OC)-c1c(OC)c(OCc3ccc(Br)cc3)cc3c1[C@H](C2)N(C)CC3 | 359 nM | 23 nM | 0.9 | 16 | 0.06 | 20 nM | 162 nM | 3000 nM | 436 nM |
| CCCCC(C)Oc1cc2c(cc1OC)-c1c(OC)c(OC)cc3c1[C@H](C2)N(C)CC3 (some centres undefined) | 33 nM | 274 nM | 1.6 | 0.1 | 13.5 | – | – | – | – |
| CCCCOc1cc2c3c(c1OC)-c1cc(OC)c(OC)cc1C[C@@H]3N(C)CC2 | 15 nM | 47 nM | 4 | 0.3 | 12.5 | 187 nM | – | – | – |
| CCCC(C)Oc1cc2c(cc1OC)-c1c(OC)c(OC)cc3c1[C@H](C2)N(C)CC3 (some centres undefined) | 10 nM | 219 nM | 1.1 | 0.05 | 24.4 | – | – | – | – |
| COc1cc2c(cc1OC1CCCCC1)C[C@H]1c3c(cc(OC)c(OC)c3-2)CCN1C | 53 nM | 614 nM | 0.9 | 0.1 | 10.8 | – | – | – | – |
| COc1cc2c(cc1OCC1CC1)C[C@H]1c3c(cc(OC)c(OC)c3-2)CCN1C | 29 nM | 533 nM | 1.1 | 0.05 | 20.1 | – | – | – | – |
| Cn1ccc2cc3c(cc21)CCN3C(=O)Nc1cccnc1 | 20 nM | – | – | – | – | – | – | – | – |
| COc1cc2c(cc1OC)-c1c(OC)c(OCC3CC3)cc3c1[C@H](C2)N(C)CC3 | 40 nM | 104 nM | 2.3 | 0.4 | 6 | 238 nM | – | – | – |
| CCCCCCOc1cc2c3c(c1OC)-c1cc(OC)c(OC)cc1C[C@@H]3N(C)CC2 | 105 nM | 82 nM | 2.6 | 1 | 2 | 213 nM | – | – | – |
| COc1cc2c(cc1OC)-c1c(OC)c(OCc3ccccc3)cc3c1[C@H](C2)N(C)CC3 | 48 nM | 4 nM | 5.5 | 12 | 0.5 | 22 nM | 137 nM | 1230 nM | 161 nM |
| CCC(C)Oc1cc2c(cc1OC)-c1c(OC)c(OC)cc3c1[C@H](C2)N(C)CC3 (some centres undefined) | 22 nM | 238 nM | 1.6 | 0.1 | 17.1 | – | – | – | – |
